Positions count from the first letter of the chain named.

Data on two compounds can be found in publication doi:10.1101/2021.09.30.462664v1 (biorxiv, 2021).

What all share (experiment): whole-cell patch clamp, V0.[…] shift, Hill fit
Holding throughout (assay type): cell-based
In general terms: The patch-clamp technique gives a direct electrical read-out from membranes.

Assay [1] concerns the target KCNQ2/3 channel (KCNQ2/3 heteromers) (Homo sapiens, UniProt O43525+O43526).
Assay [2] deals with T1, KCNQ3 (homomer; KCNQ3T = KCNQ3-A315T) (Homo sapiens, UniProt O43525, A315T).
T1 sequence (O43525 1-872 A315T): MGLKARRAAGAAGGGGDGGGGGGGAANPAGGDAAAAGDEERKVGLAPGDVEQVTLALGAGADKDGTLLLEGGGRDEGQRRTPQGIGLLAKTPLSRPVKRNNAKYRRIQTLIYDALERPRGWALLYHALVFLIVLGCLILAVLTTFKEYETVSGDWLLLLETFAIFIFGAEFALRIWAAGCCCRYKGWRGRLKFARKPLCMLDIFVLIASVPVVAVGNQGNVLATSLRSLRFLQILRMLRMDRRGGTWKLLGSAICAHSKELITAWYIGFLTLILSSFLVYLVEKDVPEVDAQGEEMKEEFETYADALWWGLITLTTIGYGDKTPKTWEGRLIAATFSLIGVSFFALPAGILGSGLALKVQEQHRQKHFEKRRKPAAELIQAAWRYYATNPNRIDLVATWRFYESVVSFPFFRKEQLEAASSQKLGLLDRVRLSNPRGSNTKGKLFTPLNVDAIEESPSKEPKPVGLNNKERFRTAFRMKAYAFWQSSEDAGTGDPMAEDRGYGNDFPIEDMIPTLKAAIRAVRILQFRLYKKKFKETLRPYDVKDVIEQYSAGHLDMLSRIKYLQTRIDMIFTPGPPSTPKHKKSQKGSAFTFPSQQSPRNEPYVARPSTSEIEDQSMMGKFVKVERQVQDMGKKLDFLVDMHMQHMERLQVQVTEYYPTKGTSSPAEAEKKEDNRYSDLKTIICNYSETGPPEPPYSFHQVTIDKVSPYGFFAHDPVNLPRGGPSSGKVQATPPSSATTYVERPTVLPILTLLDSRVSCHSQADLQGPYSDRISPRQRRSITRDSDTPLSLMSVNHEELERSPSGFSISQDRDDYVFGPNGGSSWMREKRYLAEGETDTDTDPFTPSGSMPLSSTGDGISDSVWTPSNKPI

The target of assay [3] is T2, KCNQ3 (homomer; KCNQ3T = KCNQ3-A315T) (Homo sapiens, UniProt O43525, A315T/S209A).
T2 sequence (O43525 1-872 S209A/A315T): T1 sequence (O43525 1-872 A315T) with S209A

The target of assay [4] is T3, KCNQ3 (homomer; KCNQ3T = KCNQ3-A315T) (Homo sapiens, UniProt O43525, A315T/F167A).
T3 sequence (O43525 1-872 F167A/A315T): T1 sequence (O43525 1-872 A315T) with F167A

KCNQ2/3 channel (KCNQ2/3 heteromers), sequence (O43525 whole entry): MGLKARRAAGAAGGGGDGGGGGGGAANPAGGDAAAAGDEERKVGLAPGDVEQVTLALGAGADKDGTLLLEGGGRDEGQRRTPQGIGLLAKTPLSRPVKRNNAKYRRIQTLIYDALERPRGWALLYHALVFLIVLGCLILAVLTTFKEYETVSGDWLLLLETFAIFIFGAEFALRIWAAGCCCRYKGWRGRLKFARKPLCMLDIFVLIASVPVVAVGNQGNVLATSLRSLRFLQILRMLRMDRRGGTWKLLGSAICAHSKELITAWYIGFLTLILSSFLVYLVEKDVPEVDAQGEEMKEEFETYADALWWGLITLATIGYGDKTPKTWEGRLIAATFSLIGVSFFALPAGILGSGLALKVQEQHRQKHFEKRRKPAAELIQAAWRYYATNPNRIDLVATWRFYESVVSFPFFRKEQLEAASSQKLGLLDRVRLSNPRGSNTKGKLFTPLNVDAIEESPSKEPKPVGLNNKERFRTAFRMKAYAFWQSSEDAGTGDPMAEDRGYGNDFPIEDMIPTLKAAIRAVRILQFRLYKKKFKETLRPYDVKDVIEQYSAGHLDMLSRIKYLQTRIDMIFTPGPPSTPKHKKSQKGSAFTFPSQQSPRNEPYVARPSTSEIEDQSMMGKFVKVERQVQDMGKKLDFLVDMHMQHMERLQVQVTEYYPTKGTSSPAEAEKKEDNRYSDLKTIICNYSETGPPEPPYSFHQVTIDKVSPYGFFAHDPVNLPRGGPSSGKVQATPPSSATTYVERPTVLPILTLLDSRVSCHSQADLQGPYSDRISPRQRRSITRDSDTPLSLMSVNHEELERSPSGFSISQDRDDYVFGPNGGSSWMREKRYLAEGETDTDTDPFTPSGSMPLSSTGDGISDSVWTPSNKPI
KCNQ2/3 channel (KCNQ2/3 heteromers), sequence (O43526 whole entry): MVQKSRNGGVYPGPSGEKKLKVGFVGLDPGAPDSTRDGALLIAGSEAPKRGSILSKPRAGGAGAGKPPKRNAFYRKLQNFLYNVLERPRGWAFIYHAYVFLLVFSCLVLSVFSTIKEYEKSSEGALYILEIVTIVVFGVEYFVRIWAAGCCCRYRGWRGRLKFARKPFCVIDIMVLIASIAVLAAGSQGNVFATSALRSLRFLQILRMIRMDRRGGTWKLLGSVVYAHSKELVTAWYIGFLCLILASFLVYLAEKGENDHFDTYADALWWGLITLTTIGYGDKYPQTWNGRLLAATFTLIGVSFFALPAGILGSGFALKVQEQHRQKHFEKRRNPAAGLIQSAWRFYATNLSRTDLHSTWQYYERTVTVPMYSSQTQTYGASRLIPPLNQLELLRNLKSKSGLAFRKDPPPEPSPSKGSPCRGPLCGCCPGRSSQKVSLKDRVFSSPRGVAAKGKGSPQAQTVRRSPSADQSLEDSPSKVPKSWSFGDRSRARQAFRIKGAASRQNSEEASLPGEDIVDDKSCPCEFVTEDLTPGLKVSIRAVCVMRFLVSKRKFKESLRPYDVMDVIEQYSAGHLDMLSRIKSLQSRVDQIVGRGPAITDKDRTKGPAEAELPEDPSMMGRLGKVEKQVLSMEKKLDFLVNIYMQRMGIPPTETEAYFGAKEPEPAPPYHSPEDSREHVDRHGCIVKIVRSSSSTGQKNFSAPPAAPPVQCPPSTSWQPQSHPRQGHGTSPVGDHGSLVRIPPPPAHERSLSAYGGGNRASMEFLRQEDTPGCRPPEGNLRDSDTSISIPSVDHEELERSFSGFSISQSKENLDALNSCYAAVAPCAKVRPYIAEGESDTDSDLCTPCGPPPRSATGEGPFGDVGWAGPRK

As to `CCOC(=O)Nc1ccc(NCc2ccc(F)cc2)cc1N` [retigabine], the EC50 (commonly the concentration that produces a half-maximal response) in assay [1] was 3.6 µM.
As to `Oc1cc(Cl)ccc1Oc1ccc(Cl)cc1Cl` [triclosan], the EC50 in assay [2] was 38 µM; in assay [3], 46 µM; in assay [4], 42 µM; in assay [1], 32 µM.
